Key:
[1] = biological target: recombinant human 5-HT2A receptor (Homo sapiens, UniProt P28223); experiment: 5-HT2A inverse agonism, [35S]GTPγS binding to AV12 membranes (human receptor); format: biochemical; parameters: expressed in transfected cells; host or cells: AV12 cells, membranes
Method: The inverse agonist activity of compounds of the present invention may be determined by literature recognized assay methods measuring [^35S]GTPγS binding to membranes transfected with 5-HT2A receptors in an in vitro activity assay essentially as described below.
Membranes are prepared from frozen pellets of whole AV12 cells expressing the human or rat 5-HT2A receptor. Cells are thawed on ice and homogenized in homogenization buffer (50 mM Tris-HCl, 0.5 mM EDTA, 1 tablet/100 mL of complete EDTA free protease inhibitor tablets (Roche Cat. No. 05 056 489 001), pH=7.4) with 20 strokes of a teflon-glass homogenizer attached to a motorized overhead stirrer. Centrifuge membranes at 1000 rpm (aprox. 150×g) for 15 min. at 4° C. […] The final supernatant is discarded and the pellet is resuspended in homogenization buffer and its protein content is determined by the method of Bradford using BSA as the standard. […]
Test compound is prepared from a 10 mM DMSO stock solution by serial dilution to provide a 10 point concentration response curve, with a final 1% DMSO concentration when added to the assay mixture. […] This mixture is incubated for 3 hr. with constant shaking at room temperature, centrifuged at 300 rpm for 1 min. with no brake and incubated for 3 more hr. before reading in a microplate scintillation counter.

Dopamine Transporter = Dopamine Transporter (Homo sapiens, UniProt Q01959); experiment: Dopamine transporter binding
Method: (§1) Curves are evaluated using a 4-parameter logistic nonlinear equation to obtain the concentration of competitor causing 50% inhibition of radioligand binding (IC50). Equilibrium dissociation constants (Ki) are calculated according to the equation Ki=IC50/(1+L/Kd), where L equals the concentration of radioligand used in the experiment and Kd equals the equilibrium dissociation constant of the radioligand for the receptor, determined from standard saturation analysis or homologous competition experiments. Reported values for Ki, where n values are indicated, are shown as geometric mean±the standard error of the mean (SEM), with the number of replicate determinations indicated by n. Geometric means are calculated by the equation GeoMean=10̂(Average(log Ki 1+log Ki 2+ . . . log Ki n)/[…]).
(§2) Further, the compounds of the invention may be tested in binding assays and functional activity assays by well known methods for other physiologically important receptors such as, but not limited to, the hERG channel, other serotonin receptors (specifically 5-HT1B receptors, lack of agonist activity at 5-HT2B receptors, 5-HT2C, 5-HT5, 5-HT6, and 5-HT7 receptors), dopaminergic receptors (specifically D1, D2, and D3), H1 receptors, GABAA receptors, adrenergic receptors and monoamine transporters.

H1 receptors = H1 receptors (Homo sapiens, UniProt P35367); experiment: H1 receptor binding
Method: as §1, §2

Sequence of recombinant human 5-HT2A receptor (P28223 whole entry): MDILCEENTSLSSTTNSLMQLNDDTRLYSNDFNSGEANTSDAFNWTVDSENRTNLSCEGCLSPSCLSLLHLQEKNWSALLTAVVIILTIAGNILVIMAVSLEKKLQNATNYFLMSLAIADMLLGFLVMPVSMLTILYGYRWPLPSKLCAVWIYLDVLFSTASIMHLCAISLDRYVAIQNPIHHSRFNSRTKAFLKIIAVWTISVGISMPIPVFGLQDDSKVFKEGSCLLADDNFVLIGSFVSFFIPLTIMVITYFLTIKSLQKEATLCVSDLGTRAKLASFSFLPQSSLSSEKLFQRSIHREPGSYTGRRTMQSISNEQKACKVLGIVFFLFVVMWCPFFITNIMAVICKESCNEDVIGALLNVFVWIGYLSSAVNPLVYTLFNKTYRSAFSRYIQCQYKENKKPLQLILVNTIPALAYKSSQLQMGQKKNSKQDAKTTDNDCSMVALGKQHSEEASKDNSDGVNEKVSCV
Sequence of Dopamine Transporter (Q01959 whole entry): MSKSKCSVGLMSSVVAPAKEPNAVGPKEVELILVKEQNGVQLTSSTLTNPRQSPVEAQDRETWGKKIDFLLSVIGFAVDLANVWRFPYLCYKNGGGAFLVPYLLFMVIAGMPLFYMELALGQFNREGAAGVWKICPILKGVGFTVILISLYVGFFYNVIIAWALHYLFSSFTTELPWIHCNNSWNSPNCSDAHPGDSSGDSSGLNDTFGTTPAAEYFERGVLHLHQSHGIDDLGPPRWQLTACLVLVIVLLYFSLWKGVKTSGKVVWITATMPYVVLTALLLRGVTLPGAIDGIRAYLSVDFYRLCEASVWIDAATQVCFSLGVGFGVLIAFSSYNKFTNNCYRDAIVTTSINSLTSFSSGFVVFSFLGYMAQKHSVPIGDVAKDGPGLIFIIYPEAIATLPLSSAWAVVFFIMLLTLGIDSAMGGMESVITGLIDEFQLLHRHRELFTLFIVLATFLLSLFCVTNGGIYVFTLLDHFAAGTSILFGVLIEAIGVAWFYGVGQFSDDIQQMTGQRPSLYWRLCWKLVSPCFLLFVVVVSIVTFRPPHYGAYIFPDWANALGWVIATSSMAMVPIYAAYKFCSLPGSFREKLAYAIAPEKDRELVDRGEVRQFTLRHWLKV
Sequence of H1 receptors (P35367 whole entry): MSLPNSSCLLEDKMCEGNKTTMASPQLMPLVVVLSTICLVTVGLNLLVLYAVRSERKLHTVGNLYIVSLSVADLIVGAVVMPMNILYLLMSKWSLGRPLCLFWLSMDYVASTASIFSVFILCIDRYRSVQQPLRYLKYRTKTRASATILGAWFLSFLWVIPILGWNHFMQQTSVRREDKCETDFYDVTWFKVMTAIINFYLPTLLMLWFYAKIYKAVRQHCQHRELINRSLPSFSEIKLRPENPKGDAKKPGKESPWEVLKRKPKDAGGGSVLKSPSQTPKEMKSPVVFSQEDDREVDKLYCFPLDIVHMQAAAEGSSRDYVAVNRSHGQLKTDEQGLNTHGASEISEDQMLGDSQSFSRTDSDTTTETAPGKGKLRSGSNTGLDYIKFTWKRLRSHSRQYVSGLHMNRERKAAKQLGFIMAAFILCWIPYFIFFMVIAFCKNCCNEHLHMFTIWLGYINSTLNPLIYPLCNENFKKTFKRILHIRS

SMILES: Cc1ccc2c(c1)Oc1sc(SC(C)C)cc1C(N1CCN(CC(C)(C)C(=O)O)CC1)=N2 [Example 1, 3-[4-(2-isopropylsulfanyl-8-methyl-thieno[2,3-b][1,5]benzoxazepin-4-yl)piperazin-1-yl]-2,2-dimethyl-propanoic acid]
- 5-HT2A inverse agonism (in words) [1]: inverse agonist of the 5-HT2A receptor
- EC50 ([1]; recombinant human receptor, n=2, read-out: EC50, inhibition of intrinsic activity of the 5-HT2A receptor): 85 nM
- Ki (Dopamine Transporter): > 866 nM
- Ki (H1 receptors): 599 nM

Source: patent US20150322083A1, “(THIENO[2,3-b][1,5]BENZOXAZEPIN-4-YL)PIPERAZIN-1-YL COMPOUNDS AS SELECTIVE 5-HT2A INVERSE AGONISTS” (Eli Lilly and Company, priority 2014, published 2015)
